Reference: publication PMC11625344, “A peptide derived from the amino terminus of leptin improves glucose metabolism and energy homeostasis in myotubes and db/db mice” (The Journal of Biological Chemistry, 2024)
Where no end group is shown, it is not given here.

How the values were obtained:
GLUT4 [1] = assay: GLUT4 expression, Western blot; assay type: cell-based, rat; settings: peptides 5 μM 3 h; insulin 100 nM 30 min; vs vehicle; beta-actin loading control
Text: (§1) In order to examine the peptide-induced activation of a protein, related to a signaling event, we have assessed its expression in the peptide-treated L6 myotubes with respect to the myotubes, not treated with the peptide and myotubes-treated with a positive control. For this purpose, we have performed Western blotting experiments by usual procedure after resolving the proteins of the whole cell lysates of L6 myotubes, treated at different experimental conditions by SDS-PAGE. Briefly describing the procedure, whole cell lysate was prepared by lysing the cells in radioimmunoprecipitation assay lysis buffer and equal amount of lysate was resolved on 10% SDS-PAGE. Resolved proteins were transferred to nitrocellulose membrane and the membrane was blocked with 5% skimmed milk solution. Incubated with specific primary (ratio of 1: 2500 of antibody to phosphate-buffered saline with Tween 20 (PBST) used for antibodies purchased from Sigma-Aldrich and Millipore, 1:1000 for antibodies purchased from Santa Cruz) and secondary antibodies (antibody concentration of 1:2000 in PBST), and the blots were developed using ChemiDoc ([34]).

GLUT4 [2] = assay: GLUT4 translocation to plasma membrane, Western blot of cytosolic and membrane fractions; assay type: cell-based, rat; settings: leptin-1 5 μM 3 h; insulin 100 nM 20 min; vs vehicle-treated control
Description: Separation of cytosolic and membrane fraction was performed according to the protocol mentioned earlier ([34]). In brief, the harvested cells were resuspended in membrane fractionation buffer ([40]) and kept for 1 h with regular tapping. Cellular debris were removed by centrifugation at 800g for 10 min, and the supernatant was collected in fresh micro centrifuge tube, which contains the cytosolic and crude membrane fractions. Crude membrane and cytosolic fraction were separated by centrifugation at 12000 rpm for 10 min at 4 °C. The crude membrane pellet was resuspended in radioimmunoprecipitation assay lysis buffer to elute out membrane proteins and then centrifuged at 15000 rpm for 15 min. Whole process was performed on ice. Both the samples were than resolved on 10% SDS-PAGE ([38], [40]).
In order to examine the peptide-induced activation of a protein, related to a signaling event, we have assessed its expression in the peptide-treated L6 myotubes with respect to the myotubes, not treated with the peptide and myotubes-treated with a positive control. For this purpose, we have performed Western blotting experiments by usual procedure after resolving the proteins of the whole cell lysates of L6 myotubes, treated at different experimental conditions by SDS-PAGE. […]

IRS1 = IRS1 expression, Western blot; assay type: cell-based, rat; settings: peptides 5 μM 3 h; insulin 100 nM 30 min; vs vehicle
Text: as §1

GLUT4 [3] = assay: GLUT4 translocation to plasma membrane, immunocytochemistry; assay type: cell-based, rat; settings: leptin-1 5 μM 3 h; insulin 100 nM 20 min; confocal imaging
Description: ICC analysis for GLUT4 translocation to PM was studied in L6 myotubes. L6 cells were grown and differentiated in 4-chambered slide following the protocol described above. The differentiated cells were treated with test peptide and positive control insulin for specified time period. Cells were fixed in formalin and perforated using 0.4% Triton X-100. The cells were then immunostained using anti-GLUT4 primary antibody (1:100 dilution) and incubated overnight at 4 °C. Cells were washed three times with PBST and then incubated with Alexa flour-488 tagged secondary antibody and incubated for 2 h. After 2 h, cells were again washed 5 times with PBST, and nuclear staining was performed by incubating the cells for 30 min with Hoechst nuclear stain. The cells were then again washed 3 times and the slide was mounted using DPX mounting media. Imaging of the slides was done using confocal microscope, blue range and green ranges filters were used ([34]).

AKT = AKT activation (p-AKT), Western blot; assay type: cell-based, rat; settings: leptin-1 5 μM 3 h; insulin 100 nM 30 min; vs vehicle; normalised to total AKT
Text: as §1

L6 myotubes [4] = assay: Glucose uptake assay with 2NBDG; assay type: cell-based, rat
Description: As described earlier ([34]), glucose uptake assay was performed in L6 myotubes using 2NBDG. Briefly describing, L6 cells were seeded and differentiated to myotubes as described above. Differentiated myotubes were serum fasted for 6 h with serum free DMEM and the cells were incubated with desired concentration of leptin-1 and leptin-2 peptides for specified period. […] Following peptide treatment, the cells were incubated with 200 μM of 2NBDG for 10 min and the residual 2NBDG was removed and washed with PBS. Cells were trypsinized and collected in fluorescence activated cell sorting tube for fluorescence measurement. To estimate the uptake of fluorescent glucose analog, fluorescence of the cells from different samples was measured using fluorescence activated cell sorting Aria instrument.

L6 cells = settings: peptide up to 100 μM, 2 h; MTT, absorbance 540 nm
Description: Biological activity and toxicity of the purified peptides were studied on rat skeletal muscle cell line L6. L6 cell line was seeded, grown, and differentiated according to the protocols described earlier ([34]). In brief, cells were grown in low glucose-DMEM and differentiated using DMEM containing 2% fetal bovine serum supplemented 1% Antibiotic-Antimycotic ([38], [39]).

BALB/c mice = assay: In vivo acute toxicity and survival study; set-up: species or system mouse
Description: In vivo toxicity and survival study with the peptides were performed in BALB/c mice. Mice were divided into five groups, each group with five number of mice. One group was kept as control group and injected only with vehicle (Water). […] Dosing was done through intraperitoneal route and only a single dosing was performed. The mice were kept under observation for a week after peptide injection. After 1 week of observation, survival of mice in all groups was recorded. At seventh day, blood samples were collected from each mice in all the groups, and the serum was isolated to estimate aspartate transaminase and alanine transaminase level ([43]).

AMPK protein = assay: AMPK activation (Thr-172 phosphorylation), Western blot; assay type: cell-based, rat; settings: peptides 5 μM 3 h; metformin 50 μM 6 h; normalised to total AMPK
Text: as §1

adiponectin = assay: Serum adiponectin ELISA; assay type: in vivo, mouse; settings: metformin 50 mg/kg, 30 days; vs diabetic db/db control group
Description: (§2) In vivo antidiabetic activity of the peptide was studied in diabetic animal model db/db mice. Male db/db mice with hyperglycemia were identified by checking their blood glucose level and selected for the study. Mice were divided into four groups, and the number of animals in each group was five. Blood glucose levels were measured using Accu-Chek glucometer and blood glucose measurement strips. The study was continued for 30 days. At the start of the study, fasting blood glucose in each animal was recorded, and OGTT was performed in each animal of all groups. To perform OGTT, the mice were fasted for 6 h, and then 30 min before oral glucose loading, the fasting blood glucose level in each mouse was recorded. After fasting of 6 h 3 g/kg body weight glucose was loaded orally and blood glucose at 0 minute was recorded simultaneously. Blood glucose was measured after every 30 min at 30, 60, 90, and 120 min after oral glucose loading. Time of oral glucose loading was considered as 0 min. After OGTT on day-1 peptide dosing was started. Dosing of M10 peptide at 10 mg/kg and 20 mg/kg body weight was started from day one on alternate day basis through intraperitoneal route for 30 days. Thus 15 doses of the peptide/drug were administered in each db/db mice over a period of 30 days. On final day, OGTT was performed again with the same procedure described above. […]

[5] = system: acetyl-CoA carboxylase-2 (ACC2); assay: ACC2 serine-80 phosphorylation, Western blot; assay type: cell-based, rat
Text: as §1

IL-6 = assay: Serum IL-6 ELISA; assay type: in vivo, mouse; settings: metformin-treated db/db group (50 mg/kg), 30 days
Description: as §2

TNFα = assay: Serum TNFα ELISA; assay type: in vivo, mouse; settings: metformin-treated db/db group (50 mg/kg), 30 days
Description: as §2

db/db mice = assay: In vivo antidiabetic activity, OGTT and fasting blood glucose; set-up: species or system mouse; settings: metformin 50 mg/kg i.p. on alternate days for 30 days, n = 5
Description: In vivo antidiabetic activity of the peptide was studied in diabetic animal model db/db mice. Male db/db mice with hyperglycemia were identified by checking their blood glucose level and selected for the study. Mice were divided into four groups, and the number of animals in each group was five. Blood glucose levels were measured using Accu-Chek glucometer and blood glucose measurement strips. The study was continued for 30 days. At the start of the study, fasting blood glucose in each animal was recorded, and OGTT was performed in each animal of all groups. To perform OGTT, the mice were fasted for 6 h, and then 30 min before oral glucose loading, the fasting blood glucose level in each mouse was recorded. After fasting of 6 h 3 g/kg body weight glucose was loaded orally and blood glucose at 0 minute was recorded simultaneously. Blood glucose was measured after every 30 min at 30, 60, 90, and 120 min after oral glucose loading. Time of oral glucose loading was considered as 0 min. After OGTT on day-1 peptide dosing was started. […] Thus 15 doses of the peptide/drug were administered in each db/db mice over a period of 30 days. On final day, OGTT was performed again with the same procedure described above. Blood sample was collected from each group for serum analysis. Mice were sacrificed by CO2 induced hypoxia. […]

L6 myotubes [6] = assay: ATP extraction and determination; assay type: cell-based, rat; settings: 24 h; rosiglitazone 10 μM; vehicle-treated control 4 μM; ATP determination kit
Description: Whole amount of ATP was extracted from L6-myotubes treated with leptin-1 and leptin-2 peptides and Rosiglitazone, according to the protocol mentioned in the literature ([42]). Briefly, the cells were harvested and pelleted by centrifugation. The harvested cells were incubated with 1% trichloroacetic acid and 4 mM EDTA solution for 10 min on ice for ATP extraction. The samples were centrifuged at 12,000 rpm for 10 min to pellet down the debris, and the supernatant was used for ATP determination. ATP determination was performed according to the protocol mentioned in the ATP determination kit’s manual from Thermo Fisher Scientific. Interference of trichloroacetic acid on ATP determination was avoided by 10× dilution of the sample in water.

L6 myotubes [7] = assay: Mitochondrial biogenesis assay using MitoTracker red; assay type: cell-based, rat; settings: 24 h incubation; rosiglitazone 10 μM; confocal microscopy, ImageJ
Description: Mitochondrial biogenesis was studied in L6 cells using mitochondrial stain MitoTracker CMXRos. The cells L6 was seeded in 4-chambered slide with a density of 20,000 cells per chamber. The cells were differentiated to myotubes following the protocol mentioned above. […] Following treatment with test peptides the cells were stained with MitoTracker red and Hoechst. The cells were then washed with PBS to remove the residual stains. Cells were then fixed with 4% paraformaldehyde and the slides were mounted using DPX. The slides were then imaged using confocal microscope. The excitation and emission wavelengths were fixed at 578 and 599 nm for red and 357 and […] for blue emission, respectively ([41]).

[8] = 10, 20, 40 and 80 mg/kg, day 7, comparable to vehicle-treated control

## insulin: human insulin (Sigma-Aldrich), positive control at 100 nM
GLUT4 [1]
  GLUT4 expression: 1.6 fold
GLUT4 [2]
  GLUT4 translocation to PM: 4 fold
IRS1
  IRS1 activation and expression: 1.6 fold
GLUT4 [3]
  GLUT4 translocation to PM (ICC, green fluorescence on PM): appreciable increase in green fluorescence
AKT
  AKT activation (p-AKT): 4.2 fold
L6 myotubes [4]; insulin 100 nM, Fig. 2D
  glucose uptake, positive control: significantly increased glucose uptake
L6 myotubes [4]; leptin-1 5 μM 3 h, insulin 100 nM 30 min, Fig. 5C
  glucose uptake without inhibitor: 2.4 fold

## KQKVTGLDFIPGLHPIL-NH2 [leptin-1]
L6 cells
  viability of L6 cells: ~95%
BALB/c mice; 10, 20, 40 and 80 mg/kg body weight, intraperitoneal, 7 days
  survival: 100%
BALB/c mice; [8]
  serum alanine transaminase level: normal
  serum aspartate transaminase level: normal
BALB/c mice; all peptide-treated groups, until end of 7 days
  body weight: stable body weights

## CN(C)C(=N)N=C(N)N [metformin]
AMPK protein
  AMPK Thr-172 phosphorylation: 2 fold
adiponectin
  increase in serum adiponectin production: 2.6 fold
[5]; dorsomorphin 1 h, then leptin-1 5 μM 3 h or metformin
  phosphorylation of S80 of ACC2 after dorsomorphin pretreatment: prevented
[5]; peptides 5 μM 3 h, metformin positive control
  phosphorylation of S80 residue of ACC2: significantly increased S80 residue phosphorylation
IL-6
  inhibition of IL-6 production: 52%
TNFα
  inhibition of TNFα production: 44%
db/db mice
  fasting blood glucose (FBG): reduced FBG
db/db mice; oral glucose 3 g/kg
  glucose tolerance (OGTT): improved glucose tolerance

## VVALSRLQGSLQDMLW-NH2 [leptin-2]
L6 cells
  viability of L6 cells: ~95%

## CN(CCOc1ccc(CC2SC(=O)NC2=O)cc1)c1ccccn1 (centres unmarked) [rosiglitazone]
L6 myotubes [6]
  ATP production: 13 µM
L6 myotubes [7]
  mitochondrial biogenesis (Mitotracker red fluorescence): significantly increased mitochondrial biogenesis
